Test systems include COLO 205 colon; HOP-18 NSCLC; LOX IMVI melanoma; LXFL 529 NSCLC; RXF 393 renal; SK-MEL-5 melanoma; SNB-19 CNS; SNB-75 CNS; BT-549 breast; T-47D breast.
Common to all, as to assay: inhibition of tumour cell growth, NCI panel, 48 h

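Results reflect a 48-hour exposure of cells in 96-well plates to compound at five concentrations. GI50 = concentration required for 50% inhibition of growth. At the TGI there is no net growth.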 A value given as a limit tells only on which side of the number the result lay.

As to `CC1=C(C(=O)Nc2ccccc2C)C(c2ccc(Cl)cc2)C(C(=O)Nc2ccccc2C)=C(C)N1`, the TGI in the assay with COLO 205 colon, with HOP-18 NSCLC, in the assay on LOX IMVI melanoma, with LXFL 529 NSCLC, in the assay with RXF 393 renal and in the assay on SK-MEL-5 melanoma was greater than 100 µM in each case. This compound also had a TGI in the assay with SNB-19 CNS greater than 100 µM.

`C/C=C/C(C#N)O[Si](C)(C)C` (stereo not given): the TGI in the assay with COLO 205 colon, in the assay with HOP-18 NSCLC, with LXFL 529 NSCLC, with RXF 393 renal, in the assay with SK-MEL-5 melanoma and in the assay with SNB-19 CNS was greater than 100 µM in each case. Moreover, in the assay on SNB-75 CNS, the TGI is greater than 100 µM.

For `CC(CO)Nc1cc(-c2[nH]c3cccnc3c2-c2ccc(F)cc2)ccn1` (stereo not given), the GI50 in the assay on BT-549 breast is 16.1 µM; in the assay with COLO 205 colon, 13.8 µM; in the assay on LOX IMVI melanoma, 13.7 µM; in the assay on RXF 393 renal, 12.5 µM; in the assay on SK-MEL-5 melanoma, 10.3 µM; in the assay on SNB-19 CNS it was greater than 21.6 µM. Further, the figures for the GI50 in the assay on SNB-75 CNS and in the assay with T-47D breast were 14.8 µM and 17.1 µM, respectively. Also, the TGI in the assay on BT-549 breast, with COLO 205 colon, in the assay on LOX IMVI melanoma, in the assay on RXF 393 renal, in the assay on SK-MEL-5 melanoma and in the assay on SNB-19 CNS was greater than 25 µM throughout. The TGI with SNB-75 CNS and in the assay on T-47D breast was greater than 25 µM throughout.

As to `CN(C)c1cc2ccccc2oc1=O`, the TGI in the assay on BT-549 breast, with COLO 205 colon, with LOX IMVI melanoma, with RXF 393 renal, in the assay with SK-MEL-5 melanoma and with SNB-19 CNS was greater than 100 µM throughout. The TGI with SNB-75 CNS and with T-47D breast was greater than 100 µM throughout.

As to `COC1=NCc2ccccc2-c2ccccc21`, the TGI in the assay on HOP-18 NSCLC, in the assay on LOX IMVI melanoma, in the assay with RXF 393 renal, in the assay on SK-MEL-5 melanoma, with SNB-19 CNS and in the assay with SNB-75 CNS was greater than 100 µM throughout.

In the case of `O=C1/C(=C/c2ccc([N+](=O)[O-])cc2)CN(C(=O)CCN2CCC(=NO)CC2)C/C1=C\c1ccc([N+](=O)[O-])cc1`, the GI50 is 1.71 µM in the assay with BT-549 breast; 2.33 µM in the assay on COLO 205 colon; 0.296 µM in the assay on LOX IMVI melanoma; 1.49 µM in the assay with RXF 393 renal; 1.99 µM in the assay with SK-MEL-5 melanoma; 1.08 µM in the assay with SNB-19 CNS. Moreover, the GI50 in the assay with SNB-75 CNS is 1.95 µM; in the assay on T-47D breast, 1.84 µM. Besides, the TGI with BT-549 breast came to 4.32 µM; in the assay with COLO 205 colon, 5.93 µM; in the assay with LOX IMVI melanoma it was 0.739 µM; with RXF 393 renal, 3.14 µM; in the assay on SK-MEL-5 melanoma, 4.38 µM; in the assay on SNB-19 CNS it was 5.13 µM. In addition, the TGI in the assay on SNB-75 CNS stood at 9.05 µM; with T-47D breast it was 9.27 µM.

On to `O=C(COc1ccccc1Cl)N1N=C(c2ccc(Cl)cc2)CC1(O)c1ccccc1` (stereo not given), for which the TGI in the assay with COLO 205 colon, in the assay on LOX IMVI melanoma, in the assay with LXFL 529 NSCLC, with SNB-19 CNS and with SNB-75 CNS was greater than 100 µM each time.

As for `CCCN1C(=O)NC(=O)C(CC)(N2C(=O)c3c(F)c(F)c(F)c(F)c3C2=O)C1=O` (stereo not given), the GI50 in the assay with BT-549 breast was 2.19 µM; with COLO 205 colon, 1.74 µM; with LOX IMVI melanoma it was 1.66 µM; in the assay on RXF 393 renal, 2.28 µM; in the assay with SK-MEL-5 melanoma, 2.37 µM; in the assay on SNB-19 CNS it was 2.44 µM. The values for the GI50 with SNB-75 CNS and with T-47D breast were 1.81 µM and 2.01 µM, respectively. The TGI stood at 5.29 µM in the assay with BT-549 breast; 3.29 µM with COLO 205 colon; 4.34 µM in the assay on LOX IMVI melanoma; 4.45 µM in the assay on RXF 393 renal; 7.71 µM with SK-MEL-5 melanoma; 6.53 µM in the assay on SNB-19 CNS. Also, the TGI in the assay on SNB-75 CNS was found to be 4.52 µM; in the assay with T-47D breast, 4.8 µM.

Regarding `NC(=O)CNC(=O)[C@@H]1CC(OCCC(=O)O)CN1C(=O)C1CCCN1C(=O)OCc1ccccc1` (stereo not given in full), the TGI in the assay on BT-549 breast, with COLO 205 colon, in the assay with LOX IMVI melanoma, in the assay with RXF 393 renal, with SK-MEL-5 melanoma and in the assay on SNB-19 CNS was greater than 100 µM throughout. In addition, the TGI in the assay with SNB-75 CNS and in the assay on T-47D breast was greater than 100 µM in each case.

With `O=S(=O)(/N=c1\scc(-c2ccccc2)n1-c1ccccc1)c1ccc(N2N=C3c4ccccc4CC3C2c2ccc(Cl)cc2)cc1` (stereo not given), the GI50 in the assay with BT-549 breast was 41.4 µM; in the assay on COLO 205 colon, 23.6 µM; in the assay with LOX IMVI melanoma, 21.5 µM; in the assay on RXF 393 renal, 42 µM; in the assay on SK-MEL-5 melanoma, 25.2 µM; in the assay with SNB-19 CNS, 78.8 µM. The GI50 with SNB-75 CNS and in the assay with T-47D breast was greater than 100 µM throughout. Moreover, the TGI in the assay with BT-549 breast was greater than 100 µM; in the assay on COLO 205 colon, 54.9 µM; in the assay with LOX IMVI melanoma it was 43.5 µM; in the assay with RXF 393 renal, greater than 100 µM; with SK-MEL-5 melanoma it was 75 µM; in the assay on SNB-19 CNS, greater than 100 µM. For the same compound, the TGI in the assay on SNB-75 CNS and in the assay with T-47D breast was greater than 100 µM throughout.

On to `CCC1(O)C(=O)OCc2c1cc1n(c2=O)Cc2cc3ccccc3nc2-1` (stereo not given), for which the TGI was greater than 41.4 µM in the assay on BT-549 breast; 3.55 µM in the assay on COLO 205 colon; 1.33 µM in the assay with LOX IMVI melanoma; 0.527 µM with RXF 393 renal; 0.312 µM in the assay with SK-MEL-5 melanoma; 0.0667 µM with SNB-19 CNS. In addition, the figures for the TGI in the assay on SNB-75 CNS and with T-47D breast were 0.19 µM and greater than 33.6 µM, respectively.

Regarding `O=C1Nc2ccccc2C1(O)C/C(=N/O)c1ccc2ccccc2c1` (stereo not given), the TGI is greater than 100 µM in the assay on COLO 205 colon; greater than 100 µM in the assay with HOP-18 NSCLC; 81.9 µM in the assay on LOX IMVI melanoma; greater than 100 µM in the assay with LXFL 529 NSCLC; greater than 100 µM in the assay on RXF 393 renal; greater than 100 µM with SNB-19 CNS. Also, the TGI in the assay on SNB-75 CNS was greater than 100 µM.

For the origin of these results see PubChem BioAssay (NCI).
